Reference: PMC11458808, “Identification and development of a series of disubstituted piperazines for the treatment of Chagas disease” (European Journal of Medicinal Chemistry, 2022)
In brackets after ≈: the same amount, converted by molar mass.

Assays:
[1] = Aqueous (kinetic) solubility by CAD; type: physicochemical; conditions: kinetic solubility measured by CAD
Protocol: 2.1 Aqueous solubility: This assay was conducted as previously described in [4].

[2] = system: intracellular T. cruzi X10/7 A1 amastigotes; test: Intracellular T. cruzi assay; type: cell-based, Trypanosoma cruzi; conditions: for EC50: Trypanosoma cruzi, read-out: T. cruzi (pEC50) (converted); for Activity in the intracellular T. cruzi assay (in words): purified compound
Protocol: 1.1 Intracellular T. cruzi assay: Potency against intracellular T. cruzi X10/7 A1 amastigotes was determined as described previously with as sole modification that the compound treatment duration was increased from 72h to 96h.

[3] = ChromLogD pH7.4 (chromatographic hydrophobicity index); type: physicochemical; conditions: pH 7.4, CHIpH7.4 × 0.0857–2; for chromatographic logD: read-out: ChromlogDpH7.4
[4] = Intrinsic clearance in mouse liver microsomes; type: in vitro ADME; conditions: mouse liver microsomal intrinsic clearance
Protocol: 2.2 Intrinsic clearance: This assay was conducted as previously described in [5].

[5] = potency against intracellular T. cruzi amastigotes, at least three independent replicates, standard deviations ≤0.2

Row | SMILES | solubility [1] [µM] | chromatographic logD [3] | Mouse CLi [4] [mL/min/g] | EC50 [2, 5] [µM] | T. cruzi (pEC50) [2, 5] | ChromlogDpH7.4 [3] | Activity in the intracellular T. cruzi assay (in words) [2]
1 | Cc1ccc(S(=O)(=O)Nc2ccc(CN3CCN(C(=O)C4CCc5ccccc54)CC3)cc2)cc1 (stereo not drawn) [Compound 24, N-(4-((4-(2,3-dihydro-1H-indene-1-carbonyl)piperazin-1-yl)methyl)phenyl)-4-methylbenzenesulfonamide] | 35 (≈ 17.1 µg/mL) | 5.8 | >50 | 3.98 | – | – | –
2 | Cc1ccc(S(=O)(=O)Nc2ccc(CN3CCN(C(=O)Cc4coc5ccccc45)CC3)cc2)cc1 [Compound 25] | 22 (≈ 11.1 µg/mL) | – | >50 | – | 5.2 | 5.7 | –
3 | COc1ccc(S(=O)(=O)Nc2ccc(OC3CCN(C(=O)c4cccc(Cl)c4)CC3)cc2)cc1 [Compound 28, N-(4-((1-(3-chlorobenzoyl)piperidin-4-yl)oxy)phenyl)-4-methoxybenzenesulfonamide] | < 1 | 5.9 | 37 | 5.01 | – | – | –
4 | O=C(c1cccc(Cl)c1)N1CCN(Cc2ccc(NS(=O)(=O)CC3CCCO3)cc2)CC1 (stereo not drawn) [Compound 7, N-(4-((4-(3-chlorobenzoyl)piperazin-1-yl)methyl)phenyl)-1-(tetrahydrofuran-2-yl)methanesulfonamide] | 486 (≈ 232 µg/mL) | 4.6 | 44 | 15.8 | – | – | –
5 | COc1ccc(S(=O)(=O)Nc2ccc(CN3CC[C@H](NC(=O)c4cccc(Cl)c4)C3)cc2)cc1 [Compound 30, (S)-3-chloro-N-(1-(4-((4-methoxyphenyl)sulfonamido)benzyl)pyrrolidin-3-yl)benzamide] | 51 (≈ 25.5 µg/mL) | 5.1 | >50 | 50.1 | – | – | –
6 | Cc1ccc(S(=O)(=O)Nc2ccc(CN(C)[C@H]3CCN(C(=O)c4cccc(Cl)c4)C3)cc2)cc1 [Compound 33, (S)-N-(4-(((1-(3-chlorobenzoyl)pyrrolidin-3-yl)(methyl)amino)methyl)phenyl)-4-methylbenzenesulfonamide] | 27 (≈ 13.4 µg/mL) | 5.7 | >50 | 6.31 | – | – | –
7 | O=C(c1cccc(Cl)c1)N1CCN(Cc2ccc(N3CCCCS3(=O)=O)cc2)CC1 [Compound 8, (3-chlorophenyl)(4-(4-(1,1-dioxido-1,2-thiazinan-2-yl)benzyl)piperazin-1-yl)methanone] | ≥ 402 | 5.1 | 21 | 25.1 | – | – | –
8 | Cc1ccc(S(=O)(=O)Nc2ccc(CN3C[C@@H]4CN(C(=O)c5cccc(Cl)c5)C[C@@H]4C3)cc2)cc1 [Compound 35, N-(4-(((3aR,6aS)-5-(3-chlorobenzoyl)hexahydropyrrolo[3,4-c]pyrrol-2(1H)-yl)methyl)phenyl)-4-methylbenzenesulfonamide] | 25 (≈ 12.8 µg/mL) | 5.8 | >50 | 6.31 | – | – | –
9 | COc1ccc(S(=O)(=O)Nc2ccc(CN3C[C@@H]4C[C@H]3CN4C(=O)c3cccc(Cl)c3)cc2)cc1 [Compound 39, N-(4-(((1S,4S)-5-(3-chlorobenzoyl)-2,5-diazabicyclo[2.2.1]heptan-2-yl)methyl)phenyl)-4-methoxybenzenesulfonamide] | 47 (≈ 24.1 µg/mL) | 5.1 | >50 | 15.8 | – | – | –
10 | Cc1ccc(S(=O)(=O)Nc2ccc(NC3CCN(C(=O)c4cccc(Cl)c4)CC3)cc2)cc1 [Compound 36, N-(4-((1-(3-chlorobenzoyl)piperidin-4-yl)amino)phenyl)-4-methylbenzenesulfonamide] | 18 (≈ 8.71 µg/mL) | 5.6 | 25 | 20 | – | – | –
11 | Cc1ccc(S(=O)(=O)Nc2ccc(CNC3CN(C(=O)c4cccc(Cl)c4)C3)cc2)cc1 [Compound 38, N-(4-(((1-(3-chlorobenzoyl)azetidin-3-yl)amino)methyl)phenyl)-4-methylbenzenesulfonamide] | 70 (≈ 32.9 µg/mL) | 4.8 | >50 | 12.6 | – | – | –
12 | Cc1ccc(S(=O)(=O)Nc2ccc(CN[C@@H]3CCN(C(=O)c4cccc(Cl)c4)C3)cc2)cc1 [Compound 32, (R)-N-(4-(((1-(3-chlorobenzoyl)pyrrolidin-3-yl)amino)methyl)phenyl)-4-methylbenzenesulfonamide] | 75 (≈ 36.3 µg/mL) | 4.9 | 48 | 15.8 | – | – | –
13 | COc1ccc(S(=O)(=O)Nc2ncc(CN3CCN(C(=O)c4cccc(Cl)c4)CC3)nc2OC)cc1 [Compound 46, N-(5-((4-(3-chlorobenzoyl)piperazin-1-yl)methyl)-3-methoxypyrazin-2-yl)-4-methoxybenzenesulfonamide] | ≥ 443 | 4 | 1.2 | > 50.1 | – | – | lacked any activity

Further lines, with some results ahead:

Row | solubility [1] [µM] | chromatographic logD [3] | Mouse CLi [4] [mL/min/g] | SMILES | EC50 [2, 5] [µM] | T. cruzi (pEC50) [2, 5] | ChromlogDpH7.4 [3] | Activity in the intracellular T. cruzi assay (in words) [2]
14 | ≥ 414 | 2.8 | 1.3 | COc1ccc(S(=O)(=O)Nc2cnc(CN3CCN(C(=O)c4cccc(Cl)c4)CC3)cn2)cc1 [Compound 45, N-(5-((4-(3-chlorobenzoyl)piperazin-1-yl)methyl)pyrazin-2-yl)-4-methoxybenzenesulfonamide] | > 50.1 | – | – | lacked any activity
15 | 414 (≈ 199 µg/mL) | 3.2 | 12 | COc1ccc(S(=O)(=O)Nc2ccc(CN3CCN(C(=O)c4ccnc(C)n4)CC3)cc2)cc1 [Compound 19, 4-methoxy-N-(4-((4-(2-methylpyrimidine-4-carbonyl)piperazin-1-yl)methyl)phenyl)benzenesulfonamide] | > 50.1 | – | – | –
16 | ≥ 336 | 2.3 | <0.5 | COc1ccc(S(=O)(=O)Nc2ccc(CN3CCN(C(=O)Cn4cccnc4=O)CC3)cc2)cc1 [Compound 18, 4-methoxy-N-(4-((4-(2-(2-oxopyrimidin-1(2H)-yl)acetyl)piperazin-1-yl)methyl)phenyl)benzenesulfonamide] | > 50.1 | – | – | –
17 | 116 (≈ 54 µg/mL) | 4.6 | >50 | COc1ccc(S(=O)(=O)Nc2ccc(CN3CCN(C(=O)c4ccccc4)CC3)cc2)cc1 [Compound 10, N-(4-((4-benzoylpiperazin-1-yl)methyl)phenyl)-4-methoxybenzenesulfonamide] | 3.16 | – | – | –
18 | 64 (≈ 30.7 µg/mL) | 5.1 | – | COc1ccc(S(=O)(=O)Nc2ccc(CN3CCN(C(=O)c4cccc(C)c4)CC3)cc2)cc1 [Compound 12] | 1 | – | – | –
19 | ≥ 374 | 4.3 | 8.0 | COc1ccc(S(=O)(=O)Nc2ccc(CN3CCN(C(=O)C4CC(O)(C(F)(F)F)C4)CC3)cc2)cc1 (stereo not drawn) [Compound 22, N-(4-((4-(3-hydroxy-3-(trifluoromethyl)cyclobutane-1-carbonyl)piperazin-1-yl)methyl)phenyl)-4-methoxybenzenesulfonamide] | > 50.1 | – | – | –
20 | 54 (≈ 26.7 µg/mL) | 5.2 | >50 | N#Cc1ccc(S(=O)(=O)Nc2ccc(CN3CCN(C(=O)c4cccc(Cl)c4)CC3)cc2)cc1 [Compound 5, N-(4-((4-(3-chlorobenzoyl)piperazin-1-yl)methyl)phenyl)-4-cyanobenzenesulfonamide] | 7.94 | – | – | –
